Reference: patent US20250304576A1 (Cancer Research Technology Limited, priority 2022, published 2025)
Where two headings read alike, the source gives them in different places.

Key:
PANC1 cells = test: Cell viability, alamarBlue assay, PANC1 cells; type: cell-based; conditions: treatment for 48 hours
Procedure: (§1) PC3, PC3M, LNCaP Al, cells were grown in RPMI 1640 media and PANC1 and MiaPac-2 cells were grown in Dulbecco's Modified Eagle's Media (DMEM) which was supplemented with 10% (v/v) Foetal Calf Serum (FCS) (Charcoal-stripped for LNCaP Als), L-glutamine ([…]) and penicillin/streptomycin (250 units/ml; 100 μg/ml). All cells were incubated in a humidified atmosphere at 37° C. and 5% (v/v) CO2. Cells were cultured as a monolayer in 10 ml media in […] vented flasks and grown until subculture was required.
(§2) Cell viability determination: Cells (1000 cells/100 μl) were plated into 96 well plates and incubated for 24 hours at 37° C. and 5% (v/v) CO2 before being treated with SU1433. After incubation with SU1433 for 48 h, cell viability was measured using the alamarBlue® Assay (Thermofisher, UK). The media was removed and replaced with a 1:10 media to alamar blue solution. After a 1 h incubation at 37° C. and 5% CO2, the fluorescence was measured at 530-560 nm excitation wavelength and 590 nm emission wavelength in a fluorescence plate reader. All treatment were measured in duplicate wells and repeated at least 3 times. The results represent the fractional survival of untreated controls±SD.

IKBKB (IKKβ) = molecular target: T1, IKBKB (IKKβ) (Homo sapiens, UniProt O14920); test: Z'-LYTE IKKβ assay (Life Technologies); type: biochemical
T1 construct: purchased Life Technologies (assay performed by the vendor)
T1 sequence (O14920 1-756): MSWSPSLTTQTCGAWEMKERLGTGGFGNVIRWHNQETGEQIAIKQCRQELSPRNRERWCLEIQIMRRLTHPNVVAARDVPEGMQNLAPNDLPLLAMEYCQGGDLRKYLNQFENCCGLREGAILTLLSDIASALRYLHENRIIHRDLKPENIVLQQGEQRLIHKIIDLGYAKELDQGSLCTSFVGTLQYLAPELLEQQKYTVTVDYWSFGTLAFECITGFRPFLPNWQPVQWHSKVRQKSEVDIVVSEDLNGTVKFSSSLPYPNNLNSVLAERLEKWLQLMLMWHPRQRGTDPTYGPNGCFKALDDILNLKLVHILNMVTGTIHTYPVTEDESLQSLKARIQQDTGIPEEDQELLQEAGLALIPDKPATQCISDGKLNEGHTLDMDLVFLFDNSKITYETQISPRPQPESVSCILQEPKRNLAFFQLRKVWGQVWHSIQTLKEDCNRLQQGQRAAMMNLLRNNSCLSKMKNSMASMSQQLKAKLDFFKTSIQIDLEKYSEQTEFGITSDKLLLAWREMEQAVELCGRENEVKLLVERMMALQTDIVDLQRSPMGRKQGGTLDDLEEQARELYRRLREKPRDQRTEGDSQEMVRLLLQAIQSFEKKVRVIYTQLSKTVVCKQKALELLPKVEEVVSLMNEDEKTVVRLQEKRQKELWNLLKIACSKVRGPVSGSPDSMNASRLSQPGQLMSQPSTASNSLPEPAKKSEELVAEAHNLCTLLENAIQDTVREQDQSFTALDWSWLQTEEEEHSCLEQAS
Procedure: IKKα and IKKβ inhibitory activity was determined using three different assays: a dissociation enhanced ligand fluorescent immunoassay (DELFIA) based on the protocol of HTScan™ IKKβ Kinase Assay (Cell Signaling Technology, USA); an Adapta IKKα assay (performed by Life Technologies); a Z′-LYTE™ IKKβ assay (performed by Life Technologies).
The reaction was performed in low volume NBS, black 384-well plates (Corning model 4514).
The test compounds were screened in 1% DMSO (final) in the well. For 10 point titrations, 3-fold serial dilutions were conducted from the starting concentration of 50 mM.
The 2× IKBKB (IKKβ)/Ser/Thr 05 mixture was prepared in 50 mM HEPES pH 7.5, 0.01% BRIJ-35, 10 mM MgCl2, 1 mM EGTA. The final 10 μL Kinase Reaction consisted of 0.62-4 ng IKBKB (IKKβ) and 2 μM Ser/Thr 05 in 50 mM HEPES pH 7.5, 0.01% BRIJ-35, 10 mM MgCl2, 1 mM EGTA.
5 μL of 2× Kinase reaction was incubated with 2.5 μL of ATP solution diluted to a 4× working concentration in Kinase Buffer (50 mM HEPES pH 7.5, 0.01% BRIJ-35, 10 mM MgCl2, 1 mM EGTA) in the presence of […] of 100× test compound in 100% DMSO and 2.4 μL of Kinase buffer.
The resulting kinase reaction was allowed to incubate for 1 hour at room temperature before 5 μL of a 1:64 dilution of Development Reagent B was added and the resulting Development Reaction was incubated for another hour at room temperature. Then the plate was read on a fluorescence plate reader and the data analysed.
A ratiometric method, which calculated the Emission Ratio of donor emission (i.e. coumarin) to acceptor emission (i.e. fluorescein) after excitation of the donor fluorophore at 400 nm, was used to quantitate reaction progress, as shown in the equation below.

PC3M cells = test: Cell viability, alamarBlue assay, PC3M cells; type: cell-based; conditions: treatment for 48 hours
Procedure: as §1, §2

MiaPaca-2 cells = test: Cell viability, alamarBlue assay, MiaPaca-2 cells; type: cell-based; conditions: treatment for 48 hours
Procedure: as §1, §2

LNCaP cells = test: Cell viability, alamarBlue assay, LNCaP cells; type: cell-based; conditions: treatment for 48 hours
Procedure: as §1, §2

PC3M xenografts = test: In vivo assessment in nude mice bearing PC3M xenografts; conditions: once daily i.p. dose of 50 mg/kg, over 21 days
Procedure: Xenografts were established in nude mice by subcutaneous injection of 5×10^6 PC3M-Luc-C6 cells. After 8 days, mice bearing tumours of approximately 60 mm^3 in volume were randomised into 3 treatment groups of 8 mice in each. One group of mice received intraperitoneal injection (i.p.) of 50 mg/kg SU1433 once daily dissolved in a vehicle of 5% (v/v) DMSO, 5% (v/v) solutol HS15 and 15% (w/v) hydroxypropyl-p-cyclodextrin in water for injection (90%) for a total of 21 days. Another group received once daily i.p. injection of the vehicle (100 μL) alone whilst the last group received no treatment. To monitor potential toxicity, body weight was measured daily, and experimental animals were evaluated for signs of distress using standard guidelines. Mice whose xenografts reached 1,900 mm^3 were euthanised. Subcutaneous tumours were measured with calipers immediately before treatment and every 2 or 3 days thereafter. On the assumption of ellipsoidal geometry, diameter measurements were converted to an approximate volume by multiplying half the longest diameter by the square of the mean of the 2 shorter diameters. For every animal, relative tumour volume (volume at any time point divided by volume immediately before treatment) was plotted against time, and the area under the time-volume curves was determined by trapezoidal approximation. […]

With `CC(C)(C)C#Cc1cc(-c2ccnc(N)c2)cc2c(N)n[nH]c12` [Example 137, 5-(2-Aminopyridin-4-yl)-7-(3,3-dimethylbut-1-yn-1-yl)-1H-indazol-3-amine] the “viability of PANC1 cells” value (PANC1 cells) was “reduced the viability”, the IC50 (IKBKB (IKKβ); Life Technologies assay) was 2300 nM and the “viability of PC3M cells” value (PC3M cells) was “reduced the viability”. For the same compound, the “viability of MiaPaca-2 cells” value (MiaPaca-2 cells) was “reduced the viability”, the “viability of LNCaP cells” value (LNCaP cells) was “reduced the viability” and the “inhibition of tumour growth” value (PC3M xenografts) was “approximately 60%”.
Work on `Nc1n[nH]c2c(C#CCCCN3CCOCC3)cc(-c3ccnc4[nH]ccc34)cc12` [Example 210, 7-(5-Morpholinopent-1-yn-1-yl)-5-(1H-pyrrolo[2,3-b]pyridin-4-yl)-1H-indazol-3-amine] yielded an IC50 (IKBKB (IKKβ)) of 1030 nM.
Work on `Nc1n[nH]c2ccc(-c3ccnc4[nH]c(CCCN5CCCCC5)cc34)cc12` [Example 269, 5-(2-(3-(Piperidin-1-yl)propyl)-1H-pyrrolo[2,3-b]pyridin-4-yl)-1H-indazol-3-amine] yielded an IC50 (IKBKB (IKKβ)) of 46 nM.
In the case of `Nc1n[nH]c2ccc(-c3ccnc4[nH]c(CN5CCCCC5)cc34)cc12` [Example 260, 5-(2-(Piperidin-1-ylmethyl)-1H-pyrrolo[2,3-b]pyridine-4-yl)-1H-indazol-3-amine], the IC50 (IKBKB (IKKβ)) is reported as 454 nM.
Work on `Nc1n[nH]c2ccc(-c3ccnc4[nH]c(CNC5CCCCC5)cc34)cc12` [Example 251, 5-(2-((cyclohexylamino)methyl)-1H-pyrrolo[2,3-b]339yridine-4-yl)-1H-indazol-3-amine] yielded an IC50 (IKBKB (IKKβ)) of 405 nM.
`Nc1n[nH]c2ccc(-c3ccnc4[nH]c(CC5CCCCC5)cc34)cc12` [Example 221, 5-(2-(Cyclohexylmethyl)-1H-pyrrolo[2,3-b]pyridin-4-yl)-1H-indazol-3-amine] was tested, and the IC50 (IKBKB (IKKβ)) was 655 nM.
